From PubChem BioAssay (NCI)
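Method: 48-hour compound exposure of cells in 96-well plates, five concentrations, linear interpolation of endpoints. TGI marks complete inhibition of growth.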 Peptide text beside a SMILES is read from it. * marks the point of attachment. X26 = Clc1c(Cl)c(Cl)c(O*)c(Cl)c1Cl; Boc = CC(C)(C)OC(=O)*; OBn = c1ccc(CO*)cc1; Bn = c1ccc(C*)cc1

How the values were obtained:
Experiment in all cases: DTP human tumour cell line panel, 48 h
CCRF-CEM leukemia = tested on: CCRF-CEM leukemia
HCT-15 colon = tested on: HCT-15 colon
HS 578T breast = tested on: HS 578T breast
MDA-N = tested on: MDA-N
NCI-H522 lung = tested on: NCI-H522 lung
OVCAR-5 ovarian = tested on: OVCAR-5 ovarian
SF-268 CNS = tested on: SF-268 CNS
SK-MEL-28 melanoma = tested on: SK-MEL-28 melanoma
SN12C renal = tested on: SN12C renal
UACC-257 melanoma = tested on: UACC-257 melanoma

Compound	TGI (CCRF-CEM leukemia)	TGI (HCT-15 colon)	TGI (HS 578T breast)	TGI (MDA-N)	TGI (NCI-H522 lung)	TGI (OVCAR-5 ovarian)	TGI (SF-268 CNS)	TGI (SK-MEL-28 melanoma)	TGI (SN12C renal)	TGI (UACC-257 melanoma)
Clc1ccc(OCc2nnc(COc3ccc(OCc4nnc(COc5ccc(Cl)cc5Cl)o4)c(Cl)c3)o2)c(Cl)c1	38.5 µM	> 100 µM	> 100 µM	> 100 µM	38 µM	> 100 µM	64.3 µM	> 100 µM	> 100 µM	> 100 µM
NCCCCNCCCNC(=O)CNC(=O)CC(O)C(N)CCCC(NC(=O)C(CN)NC(=O)C(O)CNC(=O)CC(N)c1ccc(O)cc1)C(=O)O (stereo not given)	> 10 µM	> 10 µM	> 10 µM	> 10 µM	> 10 µM	> 10 µM	> 10 µM	> 10 µM	> 10 µM	> 10 µM
CCCCCCCCCCCCNC(=O)CCC(NC(=O)c1ccc(N(C)Cc2cnc3nc(N)nc(N)c3n2)cc1)C(=O)NCCCCCCCCCCCC (stereo not given)	66.7 µM	> 100 µM	> 100 µM	> 100 µM	> 100 µM	> 100 µM	> 100 µM	> 100 µM	> 100 µM	> 100 µM
CC(C)CC(NC(=O)C(CCC(=O)OCc1ccccc1)NC(=O)OC(C)(C)C)C(=O)NC(COCc1ccccc1)C(=O)NC(Cc1ccccc1)C(=O)Oc1c(Cl)c(Cl)c(Cl)c(Cl)c1Cl (stereo not given) (Boc-E(OBn)LS(Bn)F-X26; configuration not given here)	74.7 µM	51 µM	65.9 µM	48.6 µM	51.4 µM	56.7 µM	> 100 µM	56.4 µM	90.5 µM	66.3 µM
Cc1ccc(S(=O)(=O)c2c(O)c3ccc(O)c(C)c3oc2=O)cc1	> 100 µM	> 100 µM	> 100 µM	> 100 µM	> 100 µM	> 100 µM	> 100 µM	> 100 µM	> 100 µM	> 100 µM
C#CCOCC12C=CC(O1)C1COC(=O)C12 (stereo not given)	> 100 µM	> 100 µM	> 100 µM	> 100 µM	> 100 µM	> 100 µM	> 100 µM	> 100 µM	> 100 µM	> 100 µM
C[n+]1c(-c2ccc(NC(=O)c3ccc(C(=O)Nc4ccc(-c5cn6ccccc6[n+]5C)cc4)cc3)cc2)cn2ccccc21	> 100 µM	> 100 µM	> 100 µM	> 100 µM	> 100 µM	> 100 µM	> 100 µM	> 100 µM	> 100 µM	> 100 µM
Cc1nc(SCC(N)=O)c2sc(=S)n(-c3ccccc3)c2n1	> 10 µM	> 10 µM	> 10 µM	> 10 µM	> 10 µM	> 10 µM	> 10 µM	> 10 µM	> 10 µM	> 10 µM
O=C1/C(=C/c2ccncc2)C(n2cccc2)c2c(Br)sc(Br)c21 (stereo not given)	4.99 µM	11.1 µM	18.1 µM	8.36 µM	30.5 µM	29.2 µM	11 µM	8.73 µM	16.4 µM	5.03 µM
O=C(Sc1c(-c2ccccc2)c(=O)n(-c2ccccc2)c(=S)n1-c1ccccc1)c1ccco1	69.3 µM	> 100 µM	> 100 µM	> 100 µM	> 100 µM	> 100 µM	> 100 µM	> 100 µM	> 100 µM	> 31.6 µM
CCOC(=O)/C=C(/C=C\COC1CCCCO1)c1ccccc1 (stereo not given)	> 100 µM	> 100 µM	> 100 µM	> 100 µM	83.5 µM	> 100 µM	> 100 µM	85.7 µM	49.5 µM	> 100 µM
COc1cccc(N2C(=O)CS(=O)(=O)C2c2cccc(Oc3ccccc3)c2)c1 (stereo not given)	> 100 µM	> 100 µM	70 µM	6.45 µM	37.6 µM	> 100 µM	> 100 µM	> 100 µM	38.2 µM	44.1 µM
CC1(C)N=C(N)N=C(N)N1c1cccc(OCc2cccc(N)c2)c1	> 100 µM	> 100 µM	> 100 µM	> 100 µM	> 100 µM	> 100 µM	> 100 µM	> 100 µM	> 100 µM	55 µM
COc1ccc2c(c1)-c1c(c3cc(OC)ccc3n1CCN(C)C)CC2	26.4 µM	28.9 µM	28 µM	27.9 µM	34.1 µM	29.9 µM	37.3 µM	30.4 µM	26 µM	29.4 µM
Clc1cc(C(c2cc(Cl)sc2Cl)c2cc(Cl)sc2Cl)c(Cl)s1	> 100 µM	> 100 µM	> 100 µM	> 100 µM	> 100 µM	> 100 µM	> 100 µM	> 100 µM	> 100 µM	> 100 µM
CC(=O)OCC(=O)O[C@@H]1[C@H]2[C@@H](OC(=O)c3ccccc3)[C@@H](C)C[C@]2(O)[C@H](OC(C)=O)[C@@]2(C)C[C@]1(OC(C)=O)C[C@H]1C(=O)C(C)(C)[C@@H](OC(C)=O)[C@@H]12	> 25 µM	> 25 µM	> 25 µM	> 25 µM	> 25 µM	> 15.7 µM	> 25 µM	> 25 µM	> 25 µM	> 25 µM
CC(=O)N(C)c1ccc(Nc2ccnc3ccc4nn(C)nc4c23)cc1	42 µM	64.5 µM	53.2 µM	> 100 µM	41.2 µM	94.1 µM	> 100 µM	73.1 µM	> 100 µM	58.3 µM
